Data from patent publication US20250268854A1, “2-AMINO-5,5-DIMETHYLHEXANOIC ACID DERIVATIVES AS SORTILIN MODULATORS FOR USE IN THE TREATMENT OF DISEASE OF THE CENTRAL NERVOUS SYSTEM” (c/o Vesper Bio ApS, priority 2021, published 2025).
pIC50: −log10 of the molar value. Counter-ions that a name gives are not always drawn.

Legend:
in vivo = conditions: mouse, Kpuu
Method: (§12) Separately, the fraction of compound bound to plasma protein or brain homogenate was measured to allow assessment of free fractions.
(§13) In practice, unbound fractions in plasma and brain tissue were assessed using rapid equilibrium dialysis in vitro. Separately a pharmacokinetic study was run in vivo whereby a dose of the compound of interest was given at T=0 hours and at subsequent timepoints (eg 0.5, 1 and 4 hours) plasma and separately brain samples were analysed for total concentration of the compound of interest. These total concentrations could then be adjusted with the unbound fraction to give the unbound concentrations in the plasma and brain. The unbound partition coefficient (Kpuu) was then determined as a ratio between the free compound concentrations in the compartment of interest, here the brain/CNS and the plasma.
(§14) The compound is administered to the animal in a suitable vehicle at T=0 hours. At one hour post administration plasma and separately brain are removed, prepared and analysed for total compound concentration.
(§15) Mouse brain samples were prepared for analysis by homogenization with Omni bead ruptor, using 4-fold volume of 150 mM phosphate buffered saline (PBS) (E.g. 400 uL PBS+100 mg brain). After homogenization, a 30 μL homogenate sample was mixed with 60 μL of internal standard solution (100 ng/ml of repaglinide and phenacetin in acetonitrile (ACN) containing 1% formic acid) and mixed. Samples were centrifuged for 20 minutes (4000 rpm, Thermo Scientific SL16) and 50 μl of supernatant, together with 100 μl of 50% acetonitrile was transferred on an analytical plate. Standard samples were prepared by spiking blank brain homogenate to obtain concentrations from 0.1 to 10 000 ng/ml in brain homogenate by using one volume of spiking solution and nine volumes of blank homogenate. Quality control (QC) samples were prepared for concentrations at 3, 30, 300 and 3000 ng/ml by using one volume of spiking solution and nine volumes of blank brain homogenate. The standards and QCs were then prepared for analysis similarly as the samples. Blank brain matrix was collected in-house from CD-1 mice.
(§16) The samples were prepared by mixing 30 μL of plasma sample with 60 μL of internal standard solution (100 ng/ml of repaglinide and phenacetin in ACN with 1% of formic acid) and mixed. Samples were centrifuged for 20 minutes (4000 rpm, Thermo Scientific SL16) and 50 μl of supernatant, together with 100 μl of 50% acetonitrile was transferred on analytical plate. 10 μl of diluted samples were transferred on analytical plate and further diluted with 190 μl of 50% acetonitrile. Standard samples were prepared by spiking blank plasma to obtain concentrations from 0.1 to 10 000 ng/ml in plasma by using one volume of spiking solution and nine volumes of blank plasma. Quality control (QC) samples were prepared for concentrations at 3, 30, 300 and 3000 ng/ml by using one volume of spiking solution and nine volumes of plasma. The standards and QCs were then prepared for analysis similarly as the samples. Blank plasma was collected in-house from CD-1 mice.
(§17) Instrumentation: Waters Acquity UPLC+Waters TQ-S triple quadrupole MS; Column: Waters Acquity HSS T3 (2.1×50 mm, 1.8 μm) column with pre-column filter; Gradient Elution; A=0.1% Formic acid, B=Acetonitrile

[1] = Blood-brain-barrier permeability of study compounds in mice after PO administration; conditions: mouse; for concentration at 1 h: po, T = 1 hour; for blood brain barrier penetration: conclusion in words; for Kp uu at 1 h: brain and plasma (unbound concentrations), oral, Kpuu, ratio of unbound brain to unbound plasma concentration
Method: as §12, §13, §14, §15, §16, §17

h-Sortilin = h-Sortilin (Homo sapiens (Human), UniProt Q99523); assay: Neurotensin (NTS) scintillation proximity assay (SPA): displacement of [3H]-neurotensin binding; conditions: 150 nM 6his-Sortilin, 5 nM [3H]-Neurotensin; average of at least 2 determinations
Chain of h-Sortilin (Q99523 78-831): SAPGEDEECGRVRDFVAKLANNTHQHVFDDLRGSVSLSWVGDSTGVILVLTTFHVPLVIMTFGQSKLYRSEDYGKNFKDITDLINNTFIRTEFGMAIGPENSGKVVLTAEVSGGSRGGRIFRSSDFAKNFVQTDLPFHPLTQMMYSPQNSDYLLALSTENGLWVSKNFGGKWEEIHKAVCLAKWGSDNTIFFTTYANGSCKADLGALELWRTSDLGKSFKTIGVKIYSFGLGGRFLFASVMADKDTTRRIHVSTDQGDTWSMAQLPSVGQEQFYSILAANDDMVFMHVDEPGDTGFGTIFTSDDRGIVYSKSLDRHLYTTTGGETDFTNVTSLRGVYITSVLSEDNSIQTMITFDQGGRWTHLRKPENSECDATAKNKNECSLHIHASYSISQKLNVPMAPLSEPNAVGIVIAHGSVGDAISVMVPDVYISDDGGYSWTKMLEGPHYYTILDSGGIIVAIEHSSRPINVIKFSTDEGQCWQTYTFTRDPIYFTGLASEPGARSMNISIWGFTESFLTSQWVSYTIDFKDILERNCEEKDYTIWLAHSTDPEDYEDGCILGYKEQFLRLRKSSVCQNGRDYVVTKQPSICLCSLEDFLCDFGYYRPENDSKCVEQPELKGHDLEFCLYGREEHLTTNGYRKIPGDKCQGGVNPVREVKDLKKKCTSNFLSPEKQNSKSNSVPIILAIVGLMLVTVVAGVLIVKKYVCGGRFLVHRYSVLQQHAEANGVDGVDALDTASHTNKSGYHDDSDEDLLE
Method: The exemplified compounds of the invention were tested in a Neurotensin (NTS) scintillation proximity assay (SPA). NTS, which is a 13 amino acid neuropeptide, is a sortilin ligand. The IC50 is a measure of the amount of the compound required to inhibit the binding of NTS to sortilin by 50%. […] Compound affinity was determined by measuring the displacement of [^3H]-neurotensin binding to h-Sortilin in SPA format. […] IC50 values were calculated by nonlinear regression using the sigmoid concentration-response (variable slope) using CDD Vault software. All values reported are average of at least 2 determinations.

[2] = Plasma protein binding by rapid equilibrium dialysis; format: in vitro ADME; conditions: 37° C.; for Mouse Plasma Unbound (Fu, %): CD1-mouse plasma, 5 μM, 4 hours; for fraction unbound at 4 h, 5 μM: pH 7.4, CD1-mouse plasma, read-out: Mouse Plasma Unbound (Fu, %)
Method: (§1) Rapid Equilibrium Dialysis The test compounds were incubated in CD1-mouse plasma and brain homogenate at 37° C. in RED device with inserts (8K MWCO, Thermo scientific) for 4 hours at 5 μM in triplicates. 350 μL of 150 mM phosphate buffered saline (PBS, pH 7.4) was used as the receiver side solutions. The samples were collected from both sides after 4 hours equilibration time and their matrices were made similar by diluting the donor side sample using blank PBS, and by diluting the receiver side sample using blank plasma/phosphate buffered saline. After the incubation, aliquots of donor side matrixes were diluted with an equal volume of the blank receiver side matrix and aliquots of receiver side matrixes were diluted with an equal volume of blank donor side matrix. All samples were protein precipitated by addition of a two-fold volume of acetonitrile containing 100 nM of repaglinide as an internal standard. After 10-minute centrifugation at 13 200 rpm, the sample supernatants were analysed with an LC-MS/MS, to obtain the unbound fraction of the test compound (Fub). The unbound fraction was calculated from the peak area ratios obtained for each matrix: […]
where CPBS and Cplasma are the analyte concentrations in PBS (receiver) and plasma (donor), respectively.
(§2) Recovery samples were prepared in each condition but without dialysis, and were used for evaluation of recovery from the dialysis experiment using following formula: […]
(§3) where VPBS is the volume on the receiver side (PBS) and Vplasma is the volume on donor side (plasma) of the dialysis device. Crecovery is the analyte concentration measured from the recovery sample.
(§4) Propranolol (1 μM) and fluoxetine (5 μM) were included in the experiment as a control compounds.

[3] = Brain homogenate binding by rapid equilibrium dialysis; format: in vitro ADME; conditions: 37° C.; for Mouse Brain Unbound (Fu, %): 5 μM, 4 hours, dilution factor 5; for fraction unbound at 4 h, 5 μM: CD1, pH 7.4, mouse brain homogenate, dilution factor 5, read-out: Mouse Brain Unbound (Fu, %)
Method: as §1, §2, §3, §4
The unbound fraction in brain (Fub, brain) was calculated from the measured value in brain homogenate (Fub, meas), taking into account the dilution factor used in preparing the brain homogenate:
where D=dilution factor (here 5).

human Sortilin = human Sortilin (Homo sapiens (Human), UniProt Q99523); assay: Creoptix (GCI) binding kinetics, human Sortilin; conditions: screened at 1 μM
Chain of human Sortilin (Q99523 78-755): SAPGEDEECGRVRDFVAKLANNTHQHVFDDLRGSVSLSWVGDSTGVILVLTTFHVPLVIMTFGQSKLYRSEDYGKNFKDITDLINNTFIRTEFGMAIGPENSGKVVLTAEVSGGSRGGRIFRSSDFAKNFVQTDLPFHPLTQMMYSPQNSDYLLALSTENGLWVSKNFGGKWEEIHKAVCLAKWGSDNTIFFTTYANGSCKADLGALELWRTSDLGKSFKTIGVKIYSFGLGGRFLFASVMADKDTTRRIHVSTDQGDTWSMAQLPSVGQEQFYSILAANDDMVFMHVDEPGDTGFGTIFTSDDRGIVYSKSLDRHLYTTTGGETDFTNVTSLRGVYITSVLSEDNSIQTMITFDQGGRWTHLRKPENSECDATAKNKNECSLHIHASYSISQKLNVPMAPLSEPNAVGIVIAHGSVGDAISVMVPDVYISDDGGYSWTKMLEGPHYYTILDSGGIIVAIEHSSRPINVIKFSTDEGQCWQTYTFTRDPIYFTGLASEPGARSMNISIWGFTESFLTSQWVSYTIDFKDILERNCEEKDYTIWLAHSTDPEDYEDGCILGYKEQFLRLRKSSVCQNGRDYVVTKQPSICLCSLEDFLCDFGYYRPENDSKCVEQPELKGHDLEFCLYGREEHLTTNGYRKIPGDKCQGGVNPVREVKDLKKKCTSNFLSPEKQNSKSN
Method: (§5) A protein, bound to a surface, is bathed in a solution containing potential ligands giving rise to binding kinetics to generate Kon and Koff rates, as well as a Kd.
(§6) All buffers described were filtered using a 0.2 μm filter (Product number: 10300461, Nalgene) and degassed for 15 minutes prior to use.
(§7) A flow cell temperature of 25 degrees Celsius was used throughout the experiment.
(§8) A 4PCH chip was conditioned across all flow cells using 0.2× concentration running buffer (running buffer composition: 1×HBS-N, pH 7.4, 3.4 mM EDTA, 1% DMSO) using pre-set conditioning wizard (WAVE control software) injecting: 0.1 M borate, 1 M NaCl (pH 9) followed by three start-up injections of 0.2× running buffer.
(§9) A buffer exchange was performed and 1× running buffer (1×HBS-N, pH 7.4, 3.4 mM EDTA, 1% DMSO) used during the immobilisation procedure:
(§10) An initial injection of EDC/NHS (mixed in 1:1 ratio) was performed across all 4-flow cells to activate the surface for amine coupling of ligands.
Recombinant Sortilin aliquots were thawed quickly by hand and centrifuged at 13,300 rpm for 10 minutes. A 10 μg/ml protein solution was then made in pH 5.0 acetate and injected once for 20 minutes over flow-cells 2, 3 and 4 for human, human (flow cells 2 & 3), and mouse Sortilin respectively followed by a 60 second dissociation period.
A final 7-minute passivation injection of 50 mM tris was used across all flow cells.
A flow rate of 10 μl/min was used for all conditioning and immobilisation cycles.
Compounds were screened at 1 μM using the in-built ‘intermediate binders’ settings: 100 ul/min, 45 s baseline, 25 s association, 300 s dissociation, with blanks every 5th sample and a DMSO correction (1.5% DMSO at the start and end of the experiment as well as every 20 cycles. An acquisition rate of 10 Hz was used throughout the experiment.
Compounds were screened at a final assay concentration of 1 μM and a final DMSO concentration was 1%. To achieve this, compounds were diluted in DMSO from 10 mM stocks to 100 μM (100×final assay concentration) then diluted 1:100 in running buffer which contained no DMSO to establish a final assay concentration of compound of 1 μM and a final DMSO concentration of 1% [DMSO].
Compounds and DMSO were mixed by plate shaking at 1000 rpm for 60 seconds using a Bioshake instrument.
A flow rate of 100 μl/min was used throughout the experiment.
(§11) Data was evaluated using the RAPID kinetic analysis tool in the GCI WAVE_control software with data fitted using a standard 1:1 kinetic BioModel.

mouse Sortilin = mouse Sortilin (Mus musculus (Mouse), UniProt Q6PHU5); assay: Creoptix (GCI) binding kinetics, mouse Sortilin; conditions: screened at 1 μM
Chain of mouse Sortilin (Q6PHU5 76-753): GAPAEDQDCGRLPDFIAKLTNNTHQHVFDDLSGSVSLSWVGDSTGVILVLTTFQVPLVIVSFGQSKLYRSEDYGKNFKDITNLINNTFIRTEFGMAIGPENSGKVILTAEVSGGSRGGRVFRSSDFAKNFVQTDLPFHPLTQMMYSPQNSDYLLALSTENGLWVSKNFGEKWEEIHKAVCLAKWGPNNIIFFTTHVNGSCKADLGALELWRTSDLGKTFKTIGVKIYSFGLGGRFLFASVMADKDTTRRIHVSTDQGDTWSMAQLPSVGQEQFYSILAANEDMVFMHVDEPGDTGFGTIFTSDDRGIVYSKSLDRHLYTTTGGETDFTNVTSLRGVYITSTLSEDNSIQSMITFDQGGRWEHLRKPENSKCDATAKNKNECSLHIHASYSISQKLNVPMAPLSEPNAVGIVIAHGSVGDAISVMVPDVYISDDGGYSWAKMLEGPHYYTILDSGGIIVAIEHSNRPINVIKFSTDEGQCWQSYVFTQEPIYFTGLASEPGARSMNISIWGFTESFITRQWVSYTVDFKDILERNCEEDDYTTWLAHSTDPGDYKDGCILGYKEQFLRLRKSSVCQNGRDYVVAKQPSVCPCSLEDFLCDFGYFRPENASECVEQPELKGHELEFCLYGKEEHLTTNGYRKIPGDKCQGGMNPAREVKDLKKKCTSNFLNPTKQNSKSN
Method: as §5, §6, §7, §8, §9, §10
Recombinant Sortilin aliquots were thawed quickly by hand and centrifuged at 13,300 rpm for 10 minutes. […]
as §11

[4] = brain, Brain Tissue Concentration (ng/g) T = 1 hour
[5] = brain, Unbound Brain Concentration (ng/mL) T = 1 hour
[6] = plasma, Total Plasma Concentration (ng/ml) T = 1 hour
[7] = plasma, Unbound Plasma Concentration (ng/mL) T = 1 hour

For Cc1cccc(NC(=O)c2ccc(C(F)(F)F)cc2C(=O)O)n1 [Comparative Example 1, reference compound], the Kp uu at 1 h (in vivo) was < 0.1, the concentration at 1 h [1, 4] was 0.9 ng/g and the concentration at 1 h [1, 5] was 0.2 ng/mL. For the same compound, the concentration at 1 h [1, 6] was 393 ng/mL, the concentration at 1 h [1, 7] was 27 ng/mL and the “blood brain barrier penetration” value [1] was “did not show a blood brain barrier penetration”.
For COc1cccc(CN[C@@H](CCC(C)(C)C)C(=O)O)c1.Cl [Example 5, (2S)-2-{[(3-methoxyphenyl)methyl]amino}-5,5-dimethylhexanoic acid], the pIC50 (h-Sortilin) was 6.25, the “Mouse Plasma Unbound (Fu, %)” value [2] was 3.3% and the fraction unbound at 4 h, 5 μM [2] was 0.033. The “Mouse Brain Unbound (Fu, %)” value [3] was 29.1%, the fraction unbound at 4 h, 5 μM [3] was 0.291 and the Kd (human Sortilin; Free acid) was 1930 nM. For the same compound, the Kd (human Sortilin; Ms salt) was 423 nM, the Kd (human Sortilin; MsOH salt) was 396 nM and the Kd (mouse Sortilin; HCl salt) was 1020 nM. The Kp uu at 1 h [1] was > 0.1, the concentration at 1 h [1, 4] was 48.5 ng/g and the concentration at 1 h [1, 5] was 14 ng/mL. The concentration at 1 h [1, 6] was 3560 ng/mL, the concentration at 1 h [1, 7] was 117 ng/mL and the “blood brain barrier penetration” value [1] was “permeate the blood brain barrier”.
With Cn1ccc2c(CN[C@@H](CCC(C)(C)C)C(=O)O)cccc21 [Example 6, (S)-5,5-dimethyl-2-(((1-methyl-1H-indol-4-yl)methyl)amino)hexanoic acid hydrochloride] the pIC50 (h-Sortilin) was 6.48, the “Mouse Plasma Unbound (Fu, %)” value [2] was 5.8% and the fraction unbound at 4 h, 5 μM [2] was 0.058. For the same compound, the “Mouse Brain Unbound (Fu, %)” value [3] was 22.9%, the fraction unbound at 4 h, 5 μM [3] was 0.229 and the Kp uu at 1 h [1] was > 0.1. The concentration at 1 h [1, 4] was 6.25 ng/g, the concentration at 1 h [1, 5] was 1.4 ng/mL and the concentration at 1 h [1, 6] was 138 ng/mL. For the same compound, the concentration at 1 h [1, 7] was 8 ng/mL and the “blood brain barrier penetration” value [1] was “permeate the blood brain barrier”.
For CC(C)(C)CC[C@H](NCc1cnc2ccccc2c1)C(=O)O [Example 35, (2S)-5,5-dimethyl-2-{[(quinolin-3-yl)methyl]amino}hexanoic acid], the pIC50 (h-Sortilin) was 6.19, the Kd (human Sortilin; Free acid) was 895 nM and the Kd (mouse Sortilin; Free acid) was 1050 nM.
COc1cc(CN[C@@H](CCC(C)(C)C)C(=O)O)ccc1F [Example 74, (2S)-2-{[(4-fluoro-3-methoxyphenyl)methyl]amino}-5,5-dimethylhexanoic acid] gave a pIC50 (h-Sortilin) of 6.02 and a Kd (human Sortilin; Free acid) of 3390 nM.
COc1cccc(CN[C@@H](CCC(C)(C)C)C(=O)O)c1C [Example 75, (2S)-2-{[(3-methoxy-2-methylphenyl)methyl]amino}-5,5-dimethylhexanoic acid] showed a pIC50 (h-Sortilin) of 6.01 and a Kd (human Sortilin; Free acid) of 443 nM.
With COc1ccc([C@H](C)N[C@@H](CCC(C)(C)C)C(=O)O)cc1C [Example 101] the pIC50 (h-Sortilin) was 6.55 and the Kd (human Sortilin; Free acid) was 277 nM.
With COc1ccc([C@@H](C)N[C@@H](CCC(C)(C)C)C(=O)O)cc1C [Example 102] the pIC50 (h-Sortilin) was 6.27 and the Kd (human Sortilin; Free acid) was 407 nM.
For CC(C)(C)CC[C@H](NCc1cnc2cccnc2c1)C(=O)O [Example 103, (2S)-5,5-dimethyl-2-{[(1,5-naphthyridin-3-yl)methyl]amino}hexanoic acid], the pIC50 (h-Sortilin) was 6.80 and the Kd (human Sortilin; Free acid) was 83.2 nM.
With COc1ccc([C@@H](C)N[C@@H](CCC(C)(C)C)C(=O)O)cc1OC [Example 107, (2S)-2-{[(1R)-1-(3,4-dimethoxyphenyl)ethyl]amino}-5,5-dimethylhexanoic acid] the pIC50 (h-Sortilin) was 6.03 and the Kd (human Sortilin; Free acid) was 443 nM.
For COc1ccc([C@H](N[C@@H](CCC(C)(C)C)C(=O)O)C(F)F)cc1OC [Example 112, (2S)-2-{[(1S)-1-(3,4-dimethoxyphenyl)-2,2-difluoroethyl]amino}-5,5-dimethylhexanoic acid], the pIC50 (h-Sortilin) was 6.55 and the Kd (human Sortilin; Free acid) was 183 nM.
Compound COc1ccc([C@@H](N[C@@H](CCC(C)(C)C)C(=O)O)C(F)F)cc1OC [Example 113, (2S)-2-{[(1R)-1-(3,4-dimethoxyphenyl)-2,2-difluoroethyl]amino}-5,5-dimethylhexanoic acid] has a pIC50 (h-Sortilin) of 6.49 and a Kd (human Sortilin; Free acid) of 625 nM.
COc1ccc([C@H](N[C@@H](CCC(C)(C)C)C(=O)O)C(F)(F)F)cc1OC [Example 114, (2S)-2-{[(1S)-1-(3,4-dimethoxyphenyl)-2,2,2-trifluoroethyl]amino}-5,5-dimethylhexanoic acid] showed a pIC50 (h-Sortilin) of 6.66 and a Kd (human Sortilin; Free acid) of 132 nM.
With COc1ccc([C@@H](N[C@@H](CCC(C)(C)C)C(=O)O)C(F)(F)F)cc1OC [Example 115, (2S)-2-{[(1R)-1-(3,4-dimethoxyphenyl)-2,2,2-trifluoroethyl]amino}-5,5-dimethylhexanoic acid] the pIC50 (h-Sortilin) was 6.38 and the Kd (human Sortilin; Free acid) was 351 nM.
For CC(C)(C)CC[C@H](NCc1ccc(Cl)c(Cl)c1)C(=O)O [Example 125, (2S)-2-{[(3,4-dichlorophenyl)methyl]amino}-5,5-dimethylhexanoic acid], the pIC50 (h-Sortilin) was 6.26 and the Kd (human Sortilin; Ms salt) was 522 nM.
For Cc1ccc(CN[C@@H](CCC(C)(C)C)C(=O)O)cc1Cl [Example 129, (2S)-2-{[(3-chloro-4-methylphenyl)methyl]amino}-5,5-dimethylhexanoic acid], the pIC50 (h-Sortilin) was 6.41 and the Kd (human Sortilin; Ms salt) was 512 nM.
Compound Cc1ccc(CN[C@@H](CCC(C)(C)C)C(=O)O)c2ccn(C)c12 [Example 131, (S)-2-(((1,7-dimethyl-1H-indol-4-yl)methyl)amino)-5,5-dimethylhexanoic acid, Mesylic acid] has a pIC50 (h-Sortilin) of 6.42 and a Kd (human Sortilin; Free acid) of 97.6 nM.
Compound Cc1ccc(CN[C@@H](CCC(C)(C)C)C(=O)O)cc1C [Example 137, (S)-2-((3,4-dimethylbenzyl)amino)-5,5-dimethylhexanoic acid, Mesylic acid] has a pIC50 (h-Sortilin) of 6.13 and a Kd (human Sortilin; Free acid) of 208 nM.
In the case of COc1ccc(F)c(CN[C@@H](CCC(C)(C)C)C(=O)O)c1 [Example 140, (2S)-2-{[(2-fluoro-5-methoxyphenyl)methyl]amino}-5,5-dimethylhexanoic acid], the pIC50 (h-Sortilin) was 6.07 and the Kd (human Sortilin; Free acid) was 456 nM.
COc1cncc(CN[C@@H](CCC(C)(C)C)C(=O)O)c1 [Example 144, (2S)-2-{[(5-methoxypyridin-3-yl)methyl]amino}-5,5-dimethylhexanoic acid] showed a pIC50 (h-Sortilin) of 6.37 and a Kd (human Sortilin; Free acid) of 310 nM.
